According to USRE49735E1 (BRISTOL-MYERS SQUIBB COMPANY, priority 2010, dated 2023):
Values joined by “and” are separate entries in the source; they are usually repeats but may differ in a detail not shown here. Equal values may be shown once.

What follows are molecules tested against human mGluR5A (Homo sapiens, UniProt P41594) (assay: mGluR5 FLIPR Assay). Conditions: positive modulator activity; HEK293 (ZF) cells with human mGluR5A and rat GLAST; Ca++ response to ~EC10 glutamate.
Type: cell-based

Sequence of human mGluR5A (P41594 21-1180 isoform P41594-2): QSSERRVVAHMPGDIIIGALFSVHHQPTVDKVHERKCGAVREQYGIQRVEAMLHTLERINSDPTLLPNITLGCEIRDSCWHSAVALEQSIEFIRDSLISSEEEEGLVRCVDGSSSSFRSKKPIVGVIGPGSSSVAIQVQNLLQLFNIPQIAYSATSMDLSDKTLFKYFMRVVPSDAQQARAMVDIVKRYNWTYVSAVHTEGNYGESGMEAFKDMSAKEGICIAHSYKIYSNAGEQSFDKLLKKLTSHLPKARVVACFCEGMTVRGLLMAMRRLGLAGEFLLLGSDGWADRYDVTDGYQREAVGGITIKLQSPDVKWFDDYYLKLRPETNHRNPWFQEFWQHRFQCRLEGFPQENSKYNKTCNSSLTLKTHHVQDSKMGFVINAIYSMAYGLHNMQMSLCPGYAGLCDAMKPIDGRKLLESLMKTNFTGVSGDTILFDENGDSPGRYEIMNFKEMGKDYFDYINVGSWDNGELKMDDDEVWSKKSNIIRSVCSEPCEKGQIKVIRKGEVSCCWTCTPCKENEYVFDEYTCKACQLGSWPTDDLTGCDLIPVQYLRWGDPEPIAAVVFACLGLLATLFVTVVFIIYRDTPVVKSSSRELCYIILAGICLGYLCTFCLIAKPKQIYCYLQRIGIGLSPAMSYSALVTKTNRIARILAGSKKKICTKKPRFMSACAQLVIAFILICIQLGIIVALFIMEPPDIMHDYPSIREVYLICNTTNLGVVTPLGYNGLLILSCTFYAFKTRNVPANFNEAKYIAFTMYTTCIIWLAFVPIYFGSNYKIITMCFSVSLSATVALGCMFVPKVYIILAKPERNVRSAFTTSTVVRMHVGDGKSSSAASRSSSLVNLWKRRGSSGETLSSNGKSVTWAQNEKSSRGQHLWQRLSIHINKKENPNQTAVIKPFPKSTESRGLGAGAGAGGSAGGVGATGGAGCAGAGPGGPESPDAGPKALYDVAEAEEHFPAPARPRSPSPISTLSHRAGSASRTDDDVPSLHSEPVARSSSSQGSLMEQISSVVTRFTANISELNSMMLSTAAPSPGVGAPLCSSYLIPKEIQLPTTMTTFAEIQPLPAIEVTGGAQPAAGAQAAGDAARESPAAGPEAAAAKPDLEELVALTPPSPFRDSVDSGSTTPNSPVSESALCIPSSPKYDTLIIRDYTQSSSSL

SMILES | EC50
O=C1N[C@H](c2cncc(C#Cc3cccc(C(F)(F)F)c3)c2)[C@@H](c2cccc(F)c2)O1 [Example 402, (4R,5R)-5-(3-fluorophenyl)-4-(5((3-(trifluoromethyl)phenyl)ethynyl)pyridin-3-yl)oxazolidin-2-one] | > 3 µM
O=C1N[C@@H](c2cccc(C#Cc3ccccc3)n2)[C@H](c2ccccc2)O1 (single isomer, unassigned) [Example 11] | > 1 µM
O=C1N[C@H](c2cncc(C#Cc3ccccn3)c2)[C@@H](c2cccc(F)c2)O1 [Example 34, (4R,5R)-5-(3-Fluorophenyl)-4-(5-(pyridin-2-ylethynyl)pyridin-3-yl)oxazolidin-2-one] | > 1 µM
COc1cccc([C@@H]2OC(=O)N[C@H]2c2cccc(C#Cc3cccc(F)c3)c2)c1 [Example 134, (4S,5S)-4-(3-((3-fluorophenyl)ethynyl)phenyl)-5-(3-methoxyphenyl)oxazolidin-2-one] | > 1 µM
COc1ncc(C#Cc2ccccc2)cc1[C@H]1NC(=O)O[C@@H]1c1cccc(F)c1 [Example 300, (4R,5R)-5-(3-Fluorophenyl)-4-(2-methoxy-5-(phenylethynyl)pyridin-3-yl)oxazolidin-2-one] | < 0.1 µM
C[C@]1(c2cncc(C#Cc3ccccc3)c2)NC(=O)O[C@H]1c1ccccc1 [Example 226] | < 0.1 µM
O=C1N[C@H](c2cncc(C#Cc3cccnc3)c2)[C@@H](c2ccc(F)c(F)c2)O1 [Example 173] | < 0.1 µM
O=C1N[C@H](c2cc(C#Cc3cccc(Cl)c3)ccn2)[C@@H](c2ccc(F)cc2)O1 (single isomer, unassigned) [Example 347] | > 1 µM
O=C1N[C@H](c2cncc(C#Cc3ccccc3)c2)[C@@H](c2ccccc2Cl)O1 (single isomer, unassigned) [Example 364] | > 1 µM
O=C1N[C@H](c2cccc(C#Cc3ccccc3)c2)[C@@H](c2ccncn2)O1 [Example 239] | < 0.1 µM
O=C1N[C@@H](c2cncc(C#Cc3ccccc3)c2)[C@H](c2cc(Cl)ccc2Cl)O1 (single isomer, unassigned) [Example 325] | > 1.5 µM
COc1cccc([C@H]2OC(=O)N[C@@H]2c2cncc(C#Cc3ccccc3)c2)c1 (single isomer, unassigned) [Example 33] | < 0.1 µM
O=C1N[C@@H](c2cccc(C#Cc3cccnc3)c2)[C@H](c2cnccn2)O1 [Example 248] | > 1 µM
COc1cccc([C@@H]2OC(=O)N[C@H]2c2cncc(C#Cc3ccccn3)c2)c1 (single isomer, unassigned) [Example 28] | > 1 µM
COc1cccc([C@H]2OC(=O)N[C@@H]2c2cccc(C#Cc3ccnnc3)c2)c1 [Example 200] | > 1 µM
O=C1N[C@@H](c2cccc(C#Cc3ccccc3)c2)[C@H](c2ccccn2)O1 [Example 232] | > 1 µM
O=C1N[C@H](c2cncc(C#Cc3cccnc3)c2)[C@@H](c2ccc(F)cc2F)O1 [Example 184] | < 0.1 µM
O=C1N[C@H](c2cncc(C#Cc3ccccn3)c2)[C@@H](c2ccc(F)c(F)c2)O1 [Example 178] | 0.1 to 1 µM and 0.117 µM
COc1cccc([C@H]2OC(=O)N[C@@H]2c2cccc(C#Cc3ccccc3C(F)(F)F)c2)c1 [Example 125, (4R,5R)-5-(3-methoxyphenyl)-4-(3-((2-(trifluoromethyl)phenyl)ethynyl)phenyl)oxazolidin-2-one] | > 30 µM

SMILES | EC50
O=C1N[C@H](c2cncc(C#Cc3cccc(F)c3)c2)[C@@H](c2cccc(F)c2F)O1 [Example 285] | 0.1 to 1 µM
O=C1N[C@@H](c2nc(C#Cc3ccccc3)ccc2F)[C@H](c2ccccc2)O1 (single isomer, unassigned) [Example 306] | > 3 µM
O=C1N[C@H](c2cccc(C#Cc3cccc(F)c3)n2)[C@@H](c2ccc(F)cc2F)O1 (single isomer, unassigned) [Example 311] | < 0.1 µM
O=C1N[C@H](c2cc(C#Cc3ccccc3)ncc2F)[C@@H](c2ccccc2F)O1 [Example 304, (4R,5R)-4-(5-Fluoro-2-(phenylethynyl)pyridin-4-yl)-5-(2-fluorophenyl)oxazolidin-2-one] | < 0.1 µM
O=C1N[C@H](c2cncc(C#Cc3ccccc3F)c2)[C@@H](c2cc(F)ccc2F)O1 [Example 282] | < 0.1 µM
O=C1N[C@@H](c2cncc(C#Cc3ccccc3)c2)[C@H](c2ccc(Cl)cc2)O1 (single isomer, unassigned) [Example 359] | 0.1 to 1 µM
COc1cccc([C@H]2OC(=O)N[C@@H]2c2cccc(C#Cc3ccc(C(C)=O)cc3)c2)c1 [Example 261] | > 1 µM
C[C@@]1(c2cncc(C#Cc3ccccc3)c2)NC(=O)O[C@@H]1c1ccccc1 [Example 225] | > 1 µM
O=C1N[C@H](c2cncc(C#Cc3ccccc3)c2)[C@H](c2ccncn2)O1 (single isomer, unassigned) [Example 320] | < 0.1 µM
O=C1N[C@H](c2cncc(C#Cc3ccncn3)c2)[C@@H](c2cc(F)ccc2F)O1 [Example 394, (4R,5R)-5-(2,5-difluorophenyl)-4-(5-(pyrimidin-4-ylethynyl)pyridin-3-yl)oxazolidin-2-one] | > 1 µM
O=C1N[C@H](c2cncc(C#Cc3ccccc3)c2)[C@H](c2ccnnc2)O1 (single isomer, unassigned) [Example 324] | < 0.1 µM
COc1cccc([C@H]2OC(=O)N[C@@H]2c2cccc(C#Cc3cccnc3F)c2)c1 [Example 79, (4R,5R)-4-(3-((2-Fluoropyridin-3-yl)ethynyl)phenyl)-5-(3-methoxyphenyl)oxazolidin-2-one] | < 0.1 µM
COc1cccc([C@H]2OC(=O)N[C@@H]2c2cccc(C#Cc3cccc(C#N)c3)c2)c1 [Example 55] | < 0.1 µM
O=C1N[C@H](c2cccc(C#Cc3ccccc3)c2)[C@@H](c2cccnc2)O1 [Example 117, (4R,5R)-4-(3-(phenylethynyl)phenyl)-5-(pyridin-3-yl)oxazolidin-2-one] | < 0.1 µM and 0.0047 µM
COc1cccc([C@H]2OC(=O)N[C@@H]2c2cccc(C#Cc3cnccn3)c2)c1 [Example 63, (4R,5R)-5-(3-Methoxyphenyl)-4-(3-(pyrazin-2-ylethynyl)phenyl)oxazolidin-2-one] | < 0.1 µM
O=C1N[C@H](c2cncc(C#Cc3cccnc3)c2)[C@@H](c2cc(F)ccc2F)O1 [Example 186] | < 0.1 µM
COc1cccc([C@H]2OC(=O)N[C@@H]2c2cccc(C#Cc3cnccc3C)c2)c1 [Example 88, (4R,5R)-5-(3-Methoxyphenyl)-4-(3-((4-methylpyridin-3-yl)ethynyl)phenyl)oxazolidin-2-one] | > 1 µM
O=C1N[C@@H](c2cc(C#Cc3ccccc3F)ccn2)[C@H](c2ccc(F)cc2)O1 (single isomer, unassigned) [Example 354] | 0.1 to 1 µM and 0.392 µM
O=C1N[C@H](c2cncc(C#Cc3cncc(F)c3)c2)[C@@H](c2cc(F)cc(F)c2)O1 [Example 171] | < 0.1 µM

SMILES | EC50
Cc1ccc([C@@H]2OC(=O)N[C@H]2c2cccc(C#Cc3ccccc3)c2)cc1C (single isomer, unassigned) [Example 102] | > 1 µM
O=C1N[C@@H](c2cccc(C#Cc3ccccc3)n2)[C@H](c2cccc(F)c2)O1 [Example 218] | > 1 µM
CC(C)(C)c1ccc(C#Cc2cncc([C@H]3NC(=O)O[C@@H]3c3cc(F)ccc3F)c2)cc1 [Example 384, (4R,5R)-4-(5-((4-tert-butylphenyl)ethynyl)pyridin-3-y1)-5-(2,5-difluorophenyl)oxazolidin-2-one] | > 1 µM
O=C1N[C@H](c2cc(C#Cc3ccc(Cl)cc3)ccn2)[C@@H](c2ccc(F)cc2)O1 (single isomer, unassigned) [Example 349] | 0.1 to 1 µM and 0.305 µM
Cc1ccc([C@@H]2OC(=O)N[C@H]2c2cccc(C#Cc3ccccc3)c2)cc1C (racemic) [Example 100, Trans-5-(3,4-dimethylphenyl)-4-(3-(phenylethynyl)phenyl)oxazolidin-2-one] | 0.1 to 1 µM
C[C@@]1(c2cccc(C#Cc3ccccc3)n2)NC(=O)O[C@H]1c1ccccc1F (single isomer, unassigned) [Example 379] | > 1 µM
O=C1N[C@H](c2cncc(C#Cc3cnccn3)c2)[C@@H](c2cccc(F)c2)O1 [Example 397, (4R,5R)-5-(3-Fluorophenyl)-4-(5-(pyrazin-2-ylethynyl)pyridin-3-yl)oxazolidin-2-one] | < 0.1 µM
COc1cccc([C@H]2OC(=O)N[C@@H]2c2cccc(C#Cc3ccc(SC)cc3)c2)c1 [Example 260] | > 1 µM
O=C1NC(c2cccc(C#Cc3ccccc3)c2)C(c2cccc(O)c2)O1 [Example 380, (4R,5R)-5-(3-Hydroxyphenyl)-4-(3-phenylethynyl)phenyl)oxazolidin-2-one] | < 0.1 µM
COc1cccc([C@H]2OC(=O)N[C@@H]2c2cccc(C#Cc3ccc4ccccc4n3)c2)c1 [Example 66, (4R,5R)-5-(3-Methoxyphenyl)-4-(3-(quinolin-2-ylethynyl)phenyl)oxazolidin-2-one] | 0.1 to 1 µM
O=C1N[C@@H](c2cccc(C#Cc3cccnc3)c2)[C@H](c2ccncn2)O1 [Example 240] | > 1 µM
COc1cccc([C@@H]2OC(=O)N[C@H]2c2cncc(C#Cc3csc(C)n3)c2)c1 (single isomer, unassigned) [Example 30] | > 1 µM
Cc1ccccc1C#Cc1cncc([C@H]2NC(=O)O[C@@H]2c2cc(F)ccc2F)c1 [Example 390, (4R,5R)-5-(2,5-difluorophenyl)-4-(5-(o-tolylethynyl)pyridin-3-yl)oxazolidin-2-one] | 0.1 to 1 µM
O=C1N[C@@H](c2cccc(C#Cc3cccnc3)n2)[C@H](c2ccccc2)O1 (single isomer, unassigned) [Example 27] | > 1 µM
COc1cccc([C@H]2OC(=O)N[C@@H]2c2cccc(C#Cc3ncccc3F)c2)c1 [Example 196] | < 0.1 µM
COc1cccc([C@H]2OC(=O)N[C@@H]2c2cccc(C#Cc3cnc4cc[nH]c4c3)c2)c1 [Example 197] | > 1 µM
Cc1ccc([C@@H]2OC(=O)N[C@H]2c2cccc(C#Cc3ccccc3)c2)cc1 [Example 108] | > 1 µM
C[C@]1(c2ccc(F)cc2)OC(=O)N[C@@H]1c1cncc(C#Cc2ccccc2)c1 [Example 203] | < 0.1 µM and 0.0025 µM
